System: 556581-035-R-J1-PDC spheroids with HUVEC/MSC, viability
Assay: Anticancer human tumor 556581-035-R-J1-PDC patient-derived ovarian carcinoma cell line growth inhibition [IpAb]
Details: for IC50: curve of first compound; for viability, T/C: stronger effect = lower value
Description: Combinatorial screen of targeted agents with ipatasertib and abemaciclib in multi-cell type tumor spheroids
A high-throughput screen of multi-cell type tumor spheroids was designed to identify active combinations of targeted small molecules and ipatasertib or abemaciclib. Complex spheroids include a stromal component modeled by human endothelial cells (HUVEC) and fibroblasts modeled by human mesenchymal stem cells (MSCs). The concentration ranges selected for each drug and investigational agent were based upon clinically achievable concentrations if the clinical Cmax of the agent was known.
Compounds. The drugs and investigational agents: ipatasertib (NSC767898), abemaciclib(NSC768073), selumetinib (NSC741078), trametinib (758246), adavosertib (NSC754352), everolimus (NSC733504), sapanisertib (NSC764658), vemurafenib (NSC761431), venetoclax (NSC766270), copanlisib (NSC809693), apelisib (NSC765974), palbociblib (NSC758247), vemurafenib (NSC761431), dabrafenib (NSC764134), ravoxertinib (NSC781343), BMS-387032 (NSC767048), sotorasib (NSC818433), talazoparib (NSC767125) and afursertib (NSC778305), were obtained from the National Cancer Institute (NCI) Developmental Therapeutics Program Chemical Repository. The FDA-approved anticancer drug set is available from the NCI Developmental Therapeutics Program. […] The stock solutions were prepared in dimethyl sulfoxide (DMSO, Sigma-Aldrich, St. Louis, MO, cat. D2650) at 800-fold the tested concentration and stored at -70 degrees C prior to their use. All drugs and investigational agents were tested over a range starting from a high concentration at or near the clinical Cmax and decreasing in half-log increments. If the clinical Cmax for an agent had not been determined, the highest concentration tested was 10 microM.
NCI60 Cell Culture. NCI60 cell lines were obtained from the NCI Developmental Therapeutics Program Tumor Repository. For each lot of cells, the Repository performed Applied Biosystems AmpFLSTR Identifiler testing with PCR amplification to confirm consistency with the published Identifier STR profile for each cell line. Cells were kept in continuous culture for no more than 20 passages. The optimal seeding densities for each of the cell lines at each time point assessed were determined prior to performing the concentration response studies. Briefly, the NCI60 human tumor lines were grown as monolayers in RPMI 1640 medium supplemented with 10% FBS and 2 mmol/L L-glutamine.
An additional 9 lines were from the NCI60 cell line panel including MDA-MB-231 breast carcinoma, MDA-MB-468 breast carcinoma, MCF7 breast carcinoma, Hs578T breast carcinoma, MALME-3M melanoma, SK-MEL-2 melanoma, SK-OV-3 ovarian carcinoma, DU-145 prostate carcinoma, PC-3 prostate carcinoma, all cell lines along with major genetic alterations are listed on Table 2. Pooled donor human umbilical vein endothelial cells (HUVEC, Lonza, cat. CC-2519) and human mesenchymal stem cells (hMSC, Lonza, cat. PT-2501) were purchased from Lonza (Walkersville, MD).
PDMR cell lines were grown in complete medium (DC medium): Dulbecco's modified Eagle's medium (DMEM)/F12 supplemented with 5% fetal bovine serum (FBS), 2 mM L-glutamine, 100 U/mL penicillin and 100 µg/ml streptomycin, 0.4 µg/ml hydrocortisone, 10 ng/ml epidermal growth factor (EGF) recombinant human protein, 24 µg/mL adenine, and 0.1 mg/mL primocin. During culture from frozen stock vials, PDMR cells were cultured in the same medium containing 10 µM Y-27632 (see Table 3). The PDCs were cultured in complete DMEM/F12 media without 10 microM Y-27632 dihydrochloride for at least two passages prior to the screen. The pooled donor HUVEC and hMSC were cultured in endothelial cell growth medium 2 (PromoCell, Heidelberg, Germany, cat. C-22011) and mesenchymal stem cell growth medium 2 (PromoCell, cat. C-28009), respectively. For all experiments, HUVEC and hMSC were used at passages </=5.
[…]

[1] = second compound 0.1 µM, first compound 0.0316 µM
[2] = second compound 0.1 µM, first compound 0.1 µM
[3] = second compound 0.1 µM, first compound 0.316 µM
[4] = second compound 0.1 µM, first compound 1 µM
[5] = second compound 0.1 µM, first compound 3.16 µM
[6] = second compound 0.1 µM, first compound 10 µM
[7] = second compound 0.316 µM, first compound 0.0316 µM
[8] = second compound 0.316 µM, first compound 0.1 µM
[9] = second compound 0.316 µM, first compound 0.316 µM
[10] = second compound 0.316 µM, first compound 1 µM
[11] = second compound 0.316 µM, first compound 3.16 µM
[12] = second compound 0.316 µM, first compound 10 µM
[13] = second compound 1 µM, first compound 0.0316 µM
[14] = second compound 1 µM, first compound 0.1 µM
[15] = second compound 1 µM, first compound 0.316 µM
[16] = second compound 1 µM, first compound 1 µM
[17] = second compound 1 µM, first compound 3.16 µM
[18] = second compound 1 µM, first compound 10 µM
[19] = second compound 3.16 µM, first compound 0.0316 µM
[20] = second compound 3.16 µM, first compound 0.1 µM
[21] = second compound 3.16 µM, first compound 0.316 µM
[22] = second compound 3.16 µM, first compound 1 µM
[23] = second compound 3.16 µM, first compound 3.16 µM
[24] = second compound 3.16 µM, first compound 10 µM
[25] = second compound 10 µM, first compound 0.0316 µM
[26] = second compound 10 µM, first compound 0.1 µM
[27] = second compound 10 µM, first compound 0.316 µM
[28] = second compound 10 µM, first compound 1 µM
[29] = second compound 10 µM, first compound 3.16 µM
[30] = second compound 10 µM, first compound 10 µM
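Note: spheroids exposed to compounds for 7 days before readout.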

SMILES | IC50 (second compound 0.1 µM) | IC50 (second compound 0.316 µM) | IC50 (second compound 1 µM) | IC50 (second compound 3.16 µM) | IC50 (second compound 10 µM) | viability, T/C [1] | viability, T/C [2] | viability, T/C [3] | viability, T/C [4] | viability, T/C [5] | viability, T/C [6] | viability, T/C [7] | viability, T/C [8] | viability, T/C [9] | viability, T/C [10] | viability, T/C [11] | viability, T/C [12] | viability, T/C [13] | viability, T/C [14] | viability, T/C [15] | also measured
CC1(C)CCC(CN2CCN(c3ccc(C(=O)NS(=O)(=O)c4ccc(NCC5CCOCC5)c([N+](=O)[O-])c4)c(Oc4cnc5[nH]ccc5c4)c3)CC2)=C(c2ccc(Cl)cc2)C1 + CC(C)NCC(C(=O)N1CCN(c2ncnc3c2C(C)CC3O)CC1)c1ccc(Cl)cc1 | 6.75 µM | 5.54 µM | 3.81 µM | 3.55 µM | < 0.0316 µM | 101% | 90.5% | 87.8% | 104% | 94.1% | 27.1% | 87.4% | 76.7% | 87.3% | 76.1% | 75% | 24% | 71.6% | 76% | 66.2% | viability, T/C [16]: 64.8%; viability, T/C [17]: 58.1%; viability, T/C [18]: 18.2%; viability, T/C [19]: 57.2%; viability, T/C [20]: 62.3%; viability, T/C [21]: 58.4%; viability, T/C [22]: 51.7%; viability, T/C [23]: 54.4%; viability, T/C [24]: 17.7%; viability, T/C [25]: 47.7%; viability, T/C [26]: 44.6%; viability, T/C [27]: 44.5%; viability, T/C [28]: 48.1%; viability, T/C [29]: 42.7%; viability, T/C [30]: 4.35%
CCCS(=O)(=O)Nc1ccc(F)c(C(=O)c2c[nH]c3ncc(-c4ccc(Cl)cc4)cc23)c1F + CC(C)NCC(C(=O)N1CCN(c2ncnc3c2C(C)CC3O)CC1)c1ccc(Cl)cc1 | > 10 µM | > 10 µM | > 10 µM | 4.62 µM | 0.0316 µM | 80.4% | 83% | 97.2% | 88.6% | 90% | 54.3% | 90% | 73.9% | 71.8% | 80.8% | 78.2% | 59.9% | 67.1% | 69% | 61.5% | viability, T/C [16]: 71.3%; viability, T/C [17]: 69.1%; viability, T/C [18]: 40.4%; viability, T/C [19]: 49.2%; viability, T/C [20]: 61.8%; viability, T/C [21]: 55.5%; viability, T/C [22]: 55.8%; viability, T/C [23]: 54.5%; viability, T/C [24]: 40.8%; viability, T/C [25]: 45.1%; viability, T/C [26]: 46.7%; viability, T/C [27]: 47.2%; viability, T/C [28]: 53.2%; viability, T/C [29]: 50.8%; viability, T/C [30]: 16.6%
